# Assay results reported in US20140106968A1, “SUBSTITUTED 1,2,4-TRIAZINE-3,5-DIONES AS HERBICIDES” (E I Du Pont De Nemours and Company, priority 2012, published 2014).
# Columns and labels:
# Type in all cases: in vivo
# [1] = test system: small-flower umbrella sedge (Cyperus difformis); assay: Test B flooded paddy test, small-flower umbrella sedge; details: scale of 0 to 100, 0 no effect, 100 complete control, 13 to 15 days
# Protocol: (§1) Plant species in the flooded paddy test selected from rice (Oryza sativa), small-flower umbrella sedge (Cyperus difformis), duck salad (Heteranthera limosa), and barnyardgrass (Echinochloa crus-galli) were grown to the 2-leaf stage for testing. At time of treatment, test pots were flooded to 3 cm above the soil surface, treated by application of test compounds directly to the paddy water, and then maintained at that water depth for the duration of the test. Treated plants and controls were maintained in a greenhouse for 13 to 15 days, after which time all species were visually compared to controls and visually evaluated. Plant response ratings, summarized in Table B, are based on a scale of 0 to 100 where 0 is no effect and 100 is complete control. A dash (-) response means no test result.
# [2] = test system: barnyardgrass (Echinochloa crus-galli); assay: Test A greenhouse pre-/postemergence herbicide test, barnyardgrass; details: 0 to 100 scale, 0 no effect, 100 complete control, approx. 10 days
# Text: (§2) Seeds of plant species selected from barnyardgrass (Echinochloa crus-galli), large (Lg) crabgrass (Digitaria sanguinalis), giant foxtail (Setaria faberii), morningglory (Ipomoea spp.), pigweed (redroot pigweed, Amaranthus retroflexus), velvetleaf (Abutilon theophrasti), winter wheat (Triticum aestivum), and corn (Zea mays) were planted into a blend of loam soil and sand and treated preemergence with a directed soil spray using test chemicals formulated in a non-phytotoxic solvent mixture which included a surfactant. At the same time these species were also treated with postemergence applications of test compounds formulated in the same manner. Plants ranged in height from 2 to 10 cm and were in the one- to two-leaf stage for the postemergence treatment. Treated plants and untreated controls were maintained in a greenhouse for approximately 10 days, after which time all treated plants were visually compared to untreated controls and visually evaluated for injury. Plant response ratings, summarized in Table A, are based on a 0 to 100 scale where 0 is no effect and 100 is complete control. A dash (-) response means no test result.
# [3] = test system: velvetleaf (Abutilon theophrasti); assay: Test A greenhouse pre-/postemergence herbicide test, velvetleaf; details: 0 to 100 scale, 0 no effect, 100 complete control, approx. 10 days
# Text: as §2
# [4] = test system: corn (Zea mays); assay: Test A greenhouse pre-/postemergence herbicide test, corn; details: 0 to 100 scale, 0 no effect, 100 complete control, approx. 10 days
# Text: as §2
# [5] = test system: barnyardgrass (Echinochloa crus-galli); assay: Test B flooded paddy test, barnyardgrass; details: scale of 0 to 100, 0 no effect, 100 complete control, 13 to 15 days
# Protocol: as §1
# [6] = test system: winter wheat (Triticum aestivum); assay: Test A greenhouse pre-/postemergence herbicide test, winter wheat; details: 0 to 100 scale, 0 no effect, 100 complete control, approx. 10 days
# Text: as §2
# [7] = test system: large (Lg) crabgrass (Digitaria sanguinalis); assay: Test A greenhouse pre-/postemergence herbicide test, large crabgrass; details: 0 to 100 scale, 0 no effect, 100 complete control, approx. 10 days
# Text: as §2
# [8] = test system: duck salad (Heteranthera limosa); assay: Test B flooded paddy test, duck salad; details: scale of 0 to 100, 0 no effect, 100 complete control, 13 to 15 days
# Protocol: as §1
# [9] = test system: morningglory (Ipomoea spp.); assay: Test A greenhouse pre-/postemergence herbicide test, morningglory; details: 0 to 100 scale, 0 no effect, 100 complete control, approx. 10 days
# Text: as §2
# [10] = test system: giant foxtail (Setaria faberii); assay: Test A greenhouse pre-/postemergence herbicide test, giant foxtail; details: 0 to 100 scale, 0 no effect, 100 complete control, approx. 10 days
# Text: as §2
# [11] = test system: rice (Oryza sativa); assay: Test B flooded paddy test, rice; details: scale of 0 to 100, 0 no effect, 100 complete control, 13 to 15 days
# Protocol: as §1
# [12] = test system: pigweed (redroot pigweed, Amaranthus retroflexus); assay: Test A greenhouse pre-/postemergence herbicide test, pigweed; details: 0 to 100 scale, 0 no effect, 100 complete control, approx. 10 days
# Text: as §2
compound,measurement,setting,value
"Cn1nc(C(=O)C2=C(O)CCCC2=O)c(=O)n(CCS(=O)(=O)CC2CC2)c1=O [Compound 3, 4-[2-[(cyclopropylmethyl)sulfonyl]ethyl]-6-[(2-hydroxy-6-oxo-1-cyclohexen-1-yl)carbonyl]-2-methyl-1,2,4-triazine-3,5(2H,4H)-dione]","Plant response rating, Sedge, Umbrella",[1]; 31 g ai/ha Flood,0
same,"Plant response rating, Sedge, Umbrella",[1]; 62 g ai/ha Flood,0
same,"Plant response rating, Sedge, Umbrella",[1]; 125 g ai/ha Flood,50
same,"Plant response rating, Sedge, Umbrella",[1]; 250 g ai/ha Flood,75
same,"Plant response rating, Barnyardgrass",[2]; 31 g ai/ha Postemergence,20
same,"Plant response rating, Barnyardgrass",[2]; 31 g ai/ha Preemergence,0
same,"Plant response rating, Barnyardgrass",[2]; 125 g ai/ha Postemergence,90
same,"Plant response rating, Barnyardgrass",[2]; 125 g ai/ha Preemergence,40
same,"Plant response rating, Velvetleaf",[3]; 31 g ai/ha Postemergence,100
same,"Plant response rating, Velvetleaf",[3]; 31 g ai/ha Preemergence,0
same,"Plant response rating, Velvetleaf",[3]; 125 g ai/ha Postemergence,100
same,"Plant response rating, Velvetleaf",[3]; 125 g ai/ha Preemergence,30
same,"Plant response rating, Corn",[4]; 31 g ai/ha Postemergence,0
same,"Plant response rating, Corn",[4]; 31 g ai/ha Preemergence,0
same,"Plant response rating, Corn",[4]; 125 g ai/ha Postemergence,0
same,"Plant response rating, Corn",[4]; 125 g ai/ha Preemergence,0
same,"Plant response rating, Barnyardgrass",[5]; 31 g ai/ha Flood,0
same,"Plant response rating, Barnyardgrass",[5]; 62 g ai/ha Flood,0
same,"Plant response rating, Barnyardgrass",[5]; 125 g ai/ha Flood,0
same,"Plant response rating, Barnyardgrass",[5]; 250 g ai/ha Flood,20
same,"Plant response rating, Wheat",[6]; 31 g ai/ha Postemergence,0
same,"Plant response rating, Wheat",[6]; 31 g ai/ha Preemergence,0
same,"Plant response rating, Wheat",[6]; 125 g ai/ha Postemergence,30
same,"Plant response rating, Wheat",[6]; 125 g ai/ha Preemergence,10
same,"Plant response rating, Crabgrass, Large",[7]; 31 g ai/ha Postemergence,30
same,"Plant response rating, Crabgrass, Large",[7]; 31 g ai/ha Preemergence,10
same,"Plant response rating, Crabgrass, Large",[7]; 125 g ai/ha Postemergence,90
same,"Plant response rating, Crabgrass, Large",[7]; 125 g ai/ha Preemergence,40
same,"Plant response rating, Ducksalad",[8]; 31 g ai/ha Flood,0
same,"Plant response rating, Ducksalad",[8]; 62 g ai/ha Flood,0
same,"Plant response rating, Ducksalad",[8]; 125 g ai/ha Flood,0
same,"Plant response rating, Ducksalad",[8]; 250 g ai/ha Flood,85
same,"Plant response rating, Morningglory",[9]; 31 g ai/ha Postemergence,60
same,"Plant response rating, Morningglory",[9]; 125 g ai/ha Postemergence,60
same,"Plant response rating, Morningglory",[9]; 125 g ai/ha Preemergence,10
same,"Plant response rating, Foxtail, Giant",[10]; 31 g ai/ha Postemergence,0
same,"Plant response rating, Foxtail, Giant",[10]; 31 g ai/ha Preemergence,0
same,"Plant response rating, Foxtail, Giant",[10]; 125 g ai/ha Postemergence,40
same,"Plant response rating, Foxtail, Giant",[10]; 125 g ai/ha Preemergence,0
same,"Plant response rating, Rice",[11]; 31 g ai/ha Flood,0
same,"Plant response rating, Rice",[11]; 62 g ai/ha Flood,0
same,"Plant response rating, Rice",[11]; 125 g ai/ha Flood,0
same,"Plant response rating, Rice",[11]; 250 g ai/ha Flood,30
same,"Plant response rating, Pigweed",[12]; 31 g ai/ha Postemergence,40
same,"Plant response rating, Pigweed",[12]; 31 g ai/ha Preemergence,20
same,"Plant response rating, Pigweed",[12]; 125 g ai/ha Postemergence,100
same,"Plant response rating, Pigweed",[12]; 125 g ai/ha Preemergence,100
"Cn1nc(C(=O)C2=C(O)CCCC2=O)c(=O)n(CCSCC2CC2)c1=O [Compound 4, 4-[2-[(cyclopropylmethyl)thio]ethyl]-6-[(2-hydroxy-6-oxo-1-cyclohexen-1-yl)carbonyl]-2-methyl-1,2,4-triazine-3,5(2H,4H)-dione]","Plant response rating, Sedge, Umbrella",[1]; 31 g ai/ha Flood,0
same,"Plant response rating, Sedge, Umbrella",[1]; 62 g ai/ha Flood,0
same,"Plant response rating, Sedge, Umbrella",[1]; 125 g ai/ha Flood,50
same,"Plant response rating, Sedge, Umbrella",[1]; 250 g ai/ha Flood,65
same,"Plant response rating, Barnyardgrass",[2]; 31 g ai/ha Postemergence,0
same,"Plant response rating, Barnyardgrass",[2]; 31 g ai/ha Preemergence,0
same,"Plant response rating, Barnyardgrass",[2]; 125 g ai/ha Postemergence,10
same,"Plant response rating, Barnyardgrass",[2]; 125 g ai/ha Preemergence,0
same,"Plant response rating, Velvetleaf",[3]; 31 g ai/ha Postemergence,70
same,"Plant response rating, Velvetleaf",[3]; 31 g ai/ha Preemergence,0
same,"Plant response rating, Velvetleaf",[3]; 125 g ai/ha Postemergence,90
same,"Plant response rating, Velvetleaf",[3]; 125 g ai/ha Preemergence,0
same,"Plant response rating, Corn",[4]; 31 g ai/ha Postemergence,0
same,"Plant response rating, Corn",[4]; 31 g ai/ha Preemergence,0
same,"Plant response rating, Corn",[4]; 125 g ai/ha Postemergence,0
same,"Plant response rating, Corn",[4]; 125 g ai/ha Preemergence,0
same,"Plant response rating, Barnyardgrass",[5]; 31 g ai/ha Flood,0
same,"Plant response rating, Barnyardgrass",[5]; 62 g ai/ha Flood,0
same,"Plant response rating, Barnyardgrass",[5]; 125 g ai/ha Flood,0
same,"Plant response rating, Barnyardgrass",[5]; 250 g ai/ha Flood,15
same,"Plant response rating, Wheat",[6]; 31 g ai/ha Postemergence,0
same,"Plant response rating, Wheat",[6]; 31 g ai/ha Preemergence,0
same,"Plant response rating, Wheat",[6]; 125 g ai/ha Postemergence,10
same,"Plant response rating, Wheat",[6]; 125 g ai/ha Preemergence,0
same,"Plant response rating, Crabgrass, Large",[7]; 31 g ai/ha Postemergence,0
same,"Plant response rating, Crabgrass, Large",[7]; 31 g ai/ha Preemergence,0
same,"Plant response rating, Crabgrass, Large",[7]; 125 g ai/ha Postemergence,10
same,"Plant response rating, Crabgrass, Large",[7]; 125 g ai/ha Preemergence,0
same,"Plant response rating, Ducksalad",[8]; 31 g ai/ha Flood,0
same,"Plant response rating, Ducksalad",[8]; 62 g ai/ha Flood,0
same,"Plant response rating, Ducksalad",[8]; 125 g ai/ha Flood,50
same,"Plant response rating, Ducksalad",[8]; 250 g ai/ha Flood,65
same,"Plant response rating, Morningglory",[9]; 31 g ai/ha Postemergence,10
same,"Plant response rating, Morningglory",[9]; 31 g ai/ha Preemergence,0
same,"Plant response rating, Morningglory",[9]; 125 g ai/ha Postemergence,100
same,"Plant response rating, Morningglory",[9]; 125 g ai/ha Preemergence,0
same,"Plant response rating, Foxtail, Giant",[10]; 31 g ai/ha Postemergence,0
same,"Plant response rating, Foxtail, Giant",[10]; 31 g ai/ha Preemergence,0
same,"Plant response rating, Foxtail, Giant",[10]; 125 g ai/ha Postemergence,0
same,"Plant response rating, Foxtail, Giant",[10]; 125 g ai/ha Preemergence,0
same,"Plant response rating, Rice",[11]; 31 g ai/ha Flood,0
same,"Plant response rating, Rice",[11]; 62 g ai/ha Flood,0
same,"Plant response rating, Rice",[11]; 125 g ai/ha Flood,15
same,"Plant response rating, Rice",[11]; 250 g ai/ha Flood,60
same,"Plant response rating, Pigweed",[12]; 31 g ai/ha Postemergence,10
same,"Plant response rating, Pigweed",[12]; 31 g ai/ha Preemergence,0
same,"Plant response rating, Pigweed",[12]; 125 g ai/ha Postemergence,50
same,"Plant response rating, Pigweed",[12]; 125 g ai/ha Preemergence,0
